{"source": "patent US20160176919A1", "about": "“CELL SPECIFIC LABELING OF NEWLY SYNTHESIZED PROTEINS” (OREGON HEALTH & SCIENCE UNIVERSITY, priority 2014, published 2016)", "key": {"Hela cells": {"system": "Hela cells", "experiment": "Identifying the nascent proteome in Hela cells using OP-puro (click chemistry with biotin azide, NeutrAvidin affinity purification, Western blot/silver stain, MS/MS)", "assay_type": "cell-based, human", "experimental": "FIG. 3 is a set of two images of gels that show selective enrichment of newly synthesized proteins in Hela cells treated with OP-puro relative to those treated with puromycin. Hela cells were treated with either 50 μM OP-puro or puro (as indicated) for one hour. Cells were then harvested in PBS+1% SDS (sodium dodecyl sulfate) and lysed. Lysates were diluted in 0.1% SDS and incubated with biotin azide using a click reaction for one hour. Biotinylated proteins were affinity purified using NeutrAvidin agarose beads. Eluted proteins were resolved using a 4-12% gradient SDS-PAGE gel and detected by either Western blot with streptavidin-HRP (left gel) or by silver stain (right gel). The lanes reflect input (I), supernatant (S), or pull-down (P) as indicated.\nOP-puro can identify newly synthesized proteins in a defined timeframe in mammalian cells grown in culture. Newly synthesized proteins were identified in Hela cells using OP-puro, followed by click chemistry, affinity purification, and MS/MS analysis. OP-puro was synthesized according to Liu et al, 2012 supra.\nTo prepare samples for MS/MS analysis, the captured biotinylated proteins from the OP-puro and puro (used as a background control) treated cells were alkylated and digested on the agarose beads using trypsin. The peptides were analyzed using a capillary HPLC system coupled online with an LTQ orbitrap mass spectrometer. […] These peptides identified 530 different human proteins, which represents ˜5% of the total Hela proteome (Nagaraj et al 2011 supra)."}, "[1]": {"system": "HEK293T cells transfected with PGA-IRES-GFP or control plasmid", "experiment": "Deblocking of PhAc-OP-puro by PGA in HEK 293T cells transfected with PGA-IRES-GFP or control plasmid (biotin azide click, Streptavidin-HRP dot blot/Western blot)", "assay_type": "cell-based, human", "experimental": "FIG. 4A is a dot blot and a bar graph showing HEK293T cells transfected with either a PGA IRES GFP or a control plasmid (as indicated) using calcium phosphate transfection. Twenty-four hours after transfection, cells were treated with 5 or 50 μM of DMSO (negative control), OP-puro, or PhAc-OP-puro as indicated for 30 minutes. Cells were harvested in PBS+1% SDS. Lysates were diluted 10× and incubated with biotin azide under click reaction conditions for one hour. Lysates were spotted onto nitrocellulose and biotinylated proteins detected with Streptavidin-HRP (top panel). Dot intensity was quantified using Image) and graphed (bottom panel).\nFIG. 4B is a set of two images of gels showing proteins from three of the samples described in FIG. 4A resolved by 4-12% gradient SDS-PAGE and detected by Western blot with Streptavidin-HRP (left panel) or Ponceau S staining (right panel) Bands marked with an asterisk are endogenous cellular biotinylated proteins.\nIn E. coli, PGA is expressed as a precursor protein containing a signal sequence that targets it to the bacterial periplasm, where it is processed and activated (Kasche et al, Biochem Biophys Acta 1433, 76 (1999); incorporated by reference herein). Previous studies, however, have shown that by removing the signal sequence, PGA can be expressed in the cytoplasm of the methylotrophic yeast, Pichia pastoris (Maresova H et al, BMC Biotechnol 10, 7 (2010); incorporated by reference herein). Importantly, this cytoplasmic variant of PGA was as active as wild type (WT) PGA expressed in bacteria (Maresova H et al, 2010 supra). However, to date, no one had shown whether or not PGA could be expressed in mammalian cells or any cells derived from a multicellular organism. A construct (PGA-IRES-GFP) was the designed, the construct comprising a variant of PGA lacking the signal sequence described above, and an IRES-GFP for co-cistronic expression of GFP to identify transfected cells.\nThe incorporation of OP-puro into newly synthesized proteins was detected using click chemistry with biotin azide. […] (FIG. 4A)."}, "[2]": {"system": "HEK 293T cells transfected with PGA-IRES-GFP", "experiment": "Cell-specific labeling of newly synthesized proteins in single HEK 293T cells (click chemistry with Alexa Fluor-568 azide, fluorescence microscopy)", "assay_type": "cell-based, human", "details": "5 μM, 30 min", "experimental": "FIG. 5A is a set of 12 images of HEK 293T cells transfected with PGA-IRES-GFP or controls as indicated using calcium phosphate transfection. In two of the conditions, PGA-IRES-GFP transfected cells were mixed with nontransfected cells such that the total population of transfected cells was 5%. At a timepoint 24 hours post transfection, cells were treated with either a DMSO control or 5 μM PhAc-OP-puro for 30 minutes as indicated. Cells were then fixed with methanol and nascent protein synthesis detected by click chemistry with Alexa Fluor-568 azide. After click chemistry, cells were labeled with an antibody specific for GFP. Total cells were detected by DAPI.\nIn cells treated with PhAc-OP-puro (5 μM, 30 min), labeling of newly synthesized proteins (OP-puro-tagged peptides) is detected in PGA-expressing cells (identified by GFP) (FIG. 5A). The amount of labeling appeared to correlate with the expression levels of PGA as determined by comparing the fluorescence intensity of the OP-puro tagged peptides to the fluorescence intensity of GFP."}, "[3]": {"experiment": "Stability of PhAc-OP-puro in mouse plasma by LCMS", "assay_type": "in vitro ADME", "details": "in vitro, for up to 40 min", "experimental": "FIG. 6 is a plot of the results of incubating PhAc-OP-puro in mouse plasma for the indicated period of time. Stability of PhAc-OP-puro was monitored by liquid chromatography mass spectrometry.\nAs shown above, PhAc-OP-puro is stable in cell culture and is not converted to OP-puro in wild type cells. To use PhAc-OP-puro in an animal system such as mice, the in vitro stability of PhAc-OP-puro in plasma should be determined. Plasma typically contains high esterase activity that could result in cleavage of the carbamate linkage in PhAc-OP-puro. Cleavage of PhAc-OP-puro at the carbamate linkage would generate OP-puro, and therefore would not allow use of the disclosed method in intact mice. While there are several examples of drugs containing carbamates (Chaturvedi D, Tetrahedron 68, 15 (2012); incorporated by reference herein), it is unpredictable whether or not a particular carbamate is resistant to esterases in plasma.\nThe potential esterase-dependent metabolism of PhAc-OP-puro in mouse plasma was assessed by liquid chromatography mass spectrometry (LCMS). PhAc-OP-puro was determined to be stable in mouse plasma for up to 40 min (FIG. 6)."}, "[4]": {"details": "OP-puro treated Hela cells, puro as background control"}}}
{"smiles": "C#CCOc1ccc(C[C@H](N)C(=O)N[C@H]2[C@@H](O)[C@H](n3cnc4c(N(C)C)ncnc43)O[C@@H]2CO)cc1", "note": "[OP-puro, O-propargyl puromycin]", "values": [{"measurement": "biotinylated proteins in NeutrAvidin eluates (Western blot with streptavidin-HRP)", "setting": "Hela cells; Hela cells, 50 μM, one hour", "result": "presence of biotinylated proteins"}, {"measurement": "fraction of the total Hela proteome represented by identified proteins", "setting": "Hela cells; OP-puro treated Hela cells", "result": "~5", "unit": "%"}, {"measurement": "different human proteins identified", "setting": "Hela cells; [4]", "result": 530}, {"measurement": "peptides with unique amino acid sequences identified by MS/MS", "setting": "Hela cells; [4]", "result": "1,600"}]}
{"smiles": "C#CCOc1ccc(C[C@H](NC(=O)OCc2ccc(NC(=O)Cc3ccccc3)cc2)C(=O)NC2C(CO)OC(n3cnc4c(N(C)C)ncnc43)C2O)cc1", "note": "(stereo partly shown) [PhAc-OP-puro]", "values": [{"measurement": "incorporation into newly synthesized proteins (biotin signal)", "setting": "[1]; HEK 293T cells transfected with PGA-IRES-GFP, 5 μM, 30 min", "result": "prominent biotin signal"}, {"measurement": "time for complete conversion to OP-puro", "setting": "[1]; PGA-IRES-GFP transfected HEK 293T cells, 5 μM", "result": "≤ 30", "unit": "min"}, {"measurement": "induction of the unfolded protein response", "setting": "[1]; PGA-IRES-GFP transfected HEK 293T cells, 5 μM, 30 min", "result": "no observed induction"}, {"measurement": "signal intensity relative to OP-puro control", "setting": "[1]; PGA-IRES-GFP transfected HEK 293T cells, 5 μM, 30 min, versus control transfected cells with OP-puro 5 μM", "result": "the same as that of control transfected cells treated with OP-puro"}, {"measurement": "activity (labeling of proteins) in the absence of PGA", "setting": "[1]; control transfected HEK 293T cells, up to 50 μM", "result": "completely inert"}, {"measurement": "labeling of newly synthesized proteins (OP-puro-tagged peptides) in PGA-expressing cells", "setting": "[2]; PGA-expressing cells identified by GFP", "result": "detected"}, {"measurement": "labeling of newly synthesized proteins in cells not expressing PGA", "setting": "[2]; cells not expressing PGA", "result": "No labeling was detected"}, {"measurement": "stability in mouse plasma", "setting": "[3]", "result": "stable"}]}
{"smiles": "COc1ccc(C[C@H](N)C(=O)N[C@H]2[C@@H](O)[C@H](n3cnc4c(N(C)C)ncnc43)O[C@@H]2CO)cc1", "note": "[puro, puromycin]", "values": [{"measurement": "silver stain of NeutrAvidin eluates", "setting": "Hela cells; Hela cells, 50 μM, one hour", "result": "no detectable staining"}]}
